According to paper PMC4815915 (Bioorganic & medicinal chemistry letters, 2015):
Blank lines part the entries; values can stand above or below the compound they belong to.

Key:
[1] = system: Plasmodium falciparum 3D7 strain; experiment: In vitro antiplasmodial activity against chloroquine-susceptible 3D7 strain; format: cell-based
[2] = system: rat microglia TXB2 generation; conditions: read-out: TXB2 generation apparent IC50; cited from earlier work

IC50 ([1]; Plasmodium falciparum, 3D7, read-out: 3D7 IC50 ± SE): 6.6 ± 0.0008 nM
SMILES: CCN(CC)CCCC(C)Nc1ccnc2cc(Cl)ccc12 (stereo not drawn) [CQ, chloroquine]

SMILES: [C-]#[N+]C(C)(C)C[C@@H]1C[C@H](C)[C@H]2CC[C@H](C)[C@@]3([N+]#[C-])CCC(=C)[C@@H]1[C@H]23 [Compound 3, 8,15-diisocyano-11(20)-amphilectene]
Fold more active than the standard drug CQ (3D7) ([1]; antiplasmodial IC50 compared with chloroquine): 5.5 times

SMILES: CC(C(=O)O)c1ccc(-c2ccccc2)c(F)c1 (stereo not drawn) [flurbiprofen]
IC50 [2]: 100 nM
